Assay results reported in ChEMBL document CHEMBL3301361, “Experimental in vitro DMPK and physicochemical data on a set of publicly disclosed compounds”.
Converted amounts (≈) assume the structure as drawn.

Key:
in vitro [1] = details: human
in vitro [2] = details: human, plasma
physchem [3] = details: octan-1-ol/water
in vitro [4] = details: SD, HW or BN, rat, plasma
physchem [5] = details: pH 7.4 buffer

Row | SMILES | microsomal CLint (in vitro [1]; liver microsomes) [µL/min/mg] | fraction unbound at 5 h (in vitro [2]; PPB) | logD (physchem [3]; pH 7.4, LogD7.4) | fraction unbound at 5 h (in vitro [4]) | also measured
1 | CCCCCCc1nc2c(N)nc3ccccc3c2n1Cc1ccccc1 | < 3 | 0.0036 | – | – | –
2 | O=C(NC1CC1)c1cc(-c2cccs2)on1 | 38.9 | 0.0768 | 2.54 | – | –
3 | O=C(NCCc1ccc(Cl)cc1)c1cccnc1 | – | – | – | 0.0854 | –
4 | COc1ccc(-c2ccc3nc(N)sc3c2)cn1 | 7.76 | 0.0383 | 3.2 | – | –
5 | c1nc(Cc2ccsc2)c[nH]1 | – | – | – | 0.371 | –
6 | N#Cc1ccc(F)c(-c2cc(C(F)(F)F)ccc2OCC(=O)O)c1 | – | 0.0293 | -0.16 | – | microsomal CLint (in vitro [1]; microsomes): < 3 µL/min/mg
7 | CCc1ccc(OCC(=O)O)c(-c2ccc(S(C)(=O)=O)cc2)c1 | – | 0.0568 | – | – | microsomal CLint (in vitro [1]; microsomes): < 3 µL/min/mg
8 | CCS(=O)(=O)c1ccc(-c2cc(C(F)(F)F)ccc2O[C@@H](C)C(=O)O)c(C)c1 | < 3 | 0.0418 | – | – | –
9 | COc1ccnc(CCc2nc3c(C)ccnc3[nH]2)c1 | – | 0.197 | 2.1 | – | microsomal CLint (in vitro [1]; microsomes): < 3 µL/min/mg
10 | CN(C)CCn1cc(-c2cc(C(=O)NC[C@H]3CC[C@H](CNC(=O)OC(C)(C)C)CC3)c3ccccc3n2)cn1 | – | – | – | 0.0647 | –
11 | CN(C)CCOC1CN(c2cc(C(=O)NC[C@H]3CC[C@H](CNC(=O)OC(C)(C)C)CC3)c3ccccc3n2)C1 | – | – | – | 0.129 | –
12 | Cc1ccccc1Nc1nc(N)nc(C)c1Br | – | – | – | 0.0752 | –
13 | O=C(NCc1ccccc1Cl)c1cccnc1Oc1ccccc1 | 36 | 0.134 | 3.68 | – | –
14 | COc1ccc(OC)c(CNC(=O)c2cccnc2Oc2ccccc2)c1 | 43.5 | 0.002 | 3.52 | – | –
15 | Cc1ccc2c(c1)c(Sc1cccc(Cl)c1)c(C)n2CC(=O)O | 12 | 0.0036 | – | – | –
16 | Cc1c(S(=O)(=O)c2ccc(Cl)cc2)c2cc(F)ccc2n1CC(=O)O | < 3 | 0.0043 | -0.16 | – | –
17 | COc1cccc(S(=O)(=O)c2c(C)n(CC(=O)O)c3ccc(C)cc23)c1 | 3 | 0.0063 | -0.42 | – | –
18 | CC(=O)Nc1cccc2c1c(S(=O)(=O)c1ccc(Cl)cc1)c(C)n2CC(=O)O | < 3 | 0.0428 | – | – | –
19 | CC(C(=O)O[C@@H]1CC[N+](C)(C)C1)(c1ccccc1)C1CCCC1 (some centres undefined) | – | – | – | 0.299 | –
20 | CC(=O)N1CCN(c2nc(NCC(C)c3ccc(Cl)cc3)c3c(n2)C(=O)N(C(C)C)C3)CC1 (centres undefined) | – | – | – | 0.142 | –
21 | CC(=O)N1CCN(c2nc(NCc3ccc(OC(F)(F)F)cc3)c3c(n2)C(=O)N(C(C)C)C3)CC1 | – | – | – | 0.151 | –

Row | SMILES | microsomal CLint (in vitro [1]; liver microsomes) [µL/min/mg] | fraction unbound at 5 h (in vitro [2]; PPB) | logD (physchem [3]; pH 7.4, LogD7.4) | fraction unbound at 5 h (in vitro [4]) | also measured
22 | CC(=O)N1CCN(c2nc3c(c(N(C)Cc4cc5ccccc5cn4)n2)CN(C(C)C)C3=O)CC1 | – | – | – | 0.339 | –
23 | Cc1cc([C@H](O)[C@](C)(OCc2ccc(-c3ccccc3)cc2)C(=O)NO)no1 | 15.8 | 0.0328 | 2.88 | – | –
24 | CCNC(=O)Nc1sc2ccccc2c1C(=O)N1CCC(N2CCCC3(CCN(CC)C3=O)C2)CC1 (centres undefined) | – | – | – | 0.17 | –
25 | N=C(N)c1ccc2[nH]c(-c3n[nH]c(-c4ccccc4)c3O)nc2c1 | – | – | – | 0.119 | –
26 | Cc1ncc(-c2cccc3c2C[C@H](NC(=O)c2ccc(OCC(F)(F)F)nc2)CO3)cn1 | – | – | – | 0.0768 | –
27 | OCCNC(=S)NCc1cccc(Cl)c1F | – | – | – | 0.16 | –
28 | Cc1ccc2c(c1)c(-c1ccnc3c(F)cccc13)c(C)n2CC(=O)O | < 3 | 0.009 | 0.53 | – | –
29 | Cc1nccnc1-c1ccc(CC(=O)N[C@H](C)c2ccc(OCC(F)(F)F)cn2)cc1 | – | – | – | 0.17 | –
30 | Cc1cc(-n2cnc3ccc(N[C@@H](C)c4ncc(F)cn4)nc32)n[nH]1 | – | – | – | 0.483 | –
31 | O=C(NCc1ccc(OC(F)(F)F)cc1)C1c2ccccc2C(=O)N1CCc1ncccn1 (centres undefined) | – | – | – | 0.129 | –
32 | COc1ccccc1C(C#N)NC(=O)[C@@H]1CCCC[C@H]1C(=O)N1CCN(Cc2ccc(F)cc2)CC1 (some centres undefined) | 127 | 0.051 | 3.57 | – | –
33 | Cc1ccc(S(=O)(=O)N(C)C(=O)N2CCC(N3CCC(Oc4ccc(Cl)c(Cl)c4)CC3)CC2)cc1 | 10 | 0.0171 | – | – | –
34 | O=C(NS(=O)(=O)c1ccccc1Cl)N1CCC(N2CCC(Oc3ccc(Cl)c(Cl)c3)CC2)CC1 | < 3 | 0.0307 | – | – | –
35 | COc1ccccc1S(=O)(=O)NC(=O)N1CCC(N2CCC(Oc3ccc(Cl)c(Cl)c3)CC2)CC1 | < 3 | 0.0409 | – | – | –
36 | O=C(NC[C@@H](O)CN1CCC(Oc2ccc(Cl)c(Cl)c2)CC1)c1cc(=O)[nH]c2ccccc12 | < 3 | 0.0183 | 3.48 | – | solubility thermodynamic (physchem [5]): 15.8 µM (≈ 7.75 µg/mL)
37 | C[S+]([O-])Cc1ccc(C(=O)Nc2cccnc2C(=O)NCC2CCOCC2)c2ccccc12 (centres undefined) | – | – | – | 0.154 | –
38 | C[S+]([O-])Cc1ccc(C(=O)Nc2nccnc2C(=O)NCC2CCC2)c2ccccc12 (centres undefined) | – | – | – | 0.0988 | –
39 | CS(=O)(=O)c1ccc(-c2nnc(/C=C/c3nnc(-c4ccc(C#N)cc4)o3)n2-c2ccccc2Cl)nc1 | < 3 | 0.0633 | 2.66 | – | –
40 | C[C@@H](Oc1ccccc1-c1cccc([N+](=O)[O-])c1)C1=NCCN1 | – | – | – | 0.403 | –
41 | CC[C@H](CO)Nc1nc(SCc2ccccc2)nc2nc(N)sc12 | 8.71 | 0.013 | 3.27 | – | –
42 | c1ccc(-c2[nH]nc3ccccc23)cc1 | – | 0.0307 | 3.79 | – | microsomal CLint (in vitro [1]; microsomes): < 3 µL/min/mg

Row | SMILES | microsomal CLint (in vitro [1]; liver microsomes) [µL/min/mg] | fraction unbound at 5 h (in vitro [2]; PPB) | logD (physchem [3]; pH 7.4, LogD7.4) | fraction unbound at 5 h (in vitro [4]) | also measured
43 | CCOC(=O)Nc1cc2c(c(N)n1)N=C(c1ccccc1)CCN2 | – | 0.0544 | – | – | microsomal CLint (in vitro [1]; microsomes): 66.1 µL/min/mg
44 | COc1ccc2c(c1)c(-c1ccnc3cc(Cl)ccc13)c(C)n2CC(=O)O | 4 | 0.0031 | 1.16 | – | –
45 | O=C(NCC12CC3CC(CC(C3)C1)C2)c1cc(N2CCNCC2)ccc1Cl | – | – | – | – | microsomal CLint (in vitro [1]; microsomes): 11 µL/min/mg; fraction unbound at 5 h (in vitro [2]): 0.0268; logD (physchem [3]; pH 7.4): 1.77; solubility thermodynamic (physchem [5]): 224 µM (≈ 86.9 µg/mL)
46 | C[C@H](CO)Nc1nc(SCc2cccc(F)c2F)nc2nc(NC3CC3)sc12 | 66 | 0.0122 | 4.37 | – | –
47 | O=C(O)CSCC(=O)Nc1nc(-c2ccccc2)cs1 | 17.8 | 0.0097 | – | – | –
48 | CC(=O)N[C@@H](Cc1ccccc1)C(=O)N[C@H]1CCCNC(=O)[C@H](CCCNC(=N)N)NC(=O)[C@H](Cc2c[nH]c3ccccc23)NC(=O)[C@@H](CC2CCCCC2)NC(=O)[C@@H]2CCCN2C1=O | – | – | – | 0.163 | –
49 | OCC(CO)Nc1nc(SCc2cccc(F)c2F)nc2nc(NC3CC3)sc12 | 46 | 0.051 | 3.11 | – | –
50 | Nc1nc2c(c(N3CC[C@@H](N)C3)n1)CCCc1ccccc1-2 | – | – | – | 0.437 | –
51 | O=C1Nc2nc(-c3c(O)cccc3OCC3CC3)cc([C@@H]3CCCNC3)c2CO1 | – | – | – | 0.124 | –
52 | O=C(CC12CC3CC(CC(C3)C1)C2)Nc1cccc2c(=O)n(C[C@H]3CCCN3)ccc12 | – | – | – | 0.151 | –
53 | Cc1nc(C(F)(F)F)ccc1C(=O)Nc1ccc(Cl)c(-c2nc3ccccc3[nH]2)c1 | – | – | – | 0.0948 | –
54 | N#CN=C(N)c1sc(Nc2ccccc2)nc1N | < 3 | 0.103 | 2.91 | – | –
55 | CC1=C(CC(=O)NCc2ccc(C(=N)N)cc2)C(=O)N(NS(=O)(=O)c2c(C)cccc2Cl)CC1 | – | – | – | 0.54 | –
56 | N=C(N)c1cc2c(-c3ccccc3)cccc2s1 | 5 | 0.101 | 1.27 | – | –
57 | N#CC1=C2C(=NC1=O)c1cccc3c(N4CCSCC4)ccc2c13 | 115 | 0.0139 | 3.22 | – | –
58 | CN1CCC[C@@H]1Cc1c[nH]c2ccc(Nc3ncccc3[N+](=O)[O-])cc12 | – | – | – | 0.387 | –
59 | CC(C)NC(=O)c1ccc2c(Nc3ccc(Cl)cc3)nc(N3CCOCC3)nc2c1 | < 3 | 0.0051 | 2.78 | – | –
60 | C[C@@H]1CN(Cc2ccc(F)cc2)CCN1C(=O)COc1ccc(Cl)cc1NC(N)=O [BX 471 FREE BASE] | 21 | – | – | – | fraction unbound at 5 h (in vitro [2]): 0.0205
61 | CNCCC(Oc1ccccc1OC)c1ccccc1 (centres undefined) [NISOXETINE] | < 3 | 0.483 | 0.22 | – | –
62 | COc1cc(NC(C)CCCN)c2ncccc2c1 (centres undefined) [PRIMAQUINE] | < 3 | 0.403 | – | – | –
